# Measured values from patent publication US8530489B2 (Vertex Pharmaceuticals Incorporated, priority 2006, dated 2013).
# Biological target: PLK1 (Homo sapiens, UniProt P53350)
# Experiment: PLK1 Inhibition Assay I (radioactive-phosphate incorporation)
# Format: biochemical
# Conditions: Ki(app); PLK1 Inhibition Assay I or II (table does not say which)
# Outline: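 Ki(app) values came from non-linear regression of initial rates after background subtraction, with phosphopeptide measured by phosphocellulose filter binding and scintillation counting. PLK1 at 2 nM was preincubated with compound (typically from 10 μM, 2-fold dilutions) for 10 min, then run 240 min at 25° C with 350 μM [γ-33P]ATP and 450 μM peptide substrate in HEPES pH 7.5 buffer.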
# Sequence of PLK1 (P53350 whole entry): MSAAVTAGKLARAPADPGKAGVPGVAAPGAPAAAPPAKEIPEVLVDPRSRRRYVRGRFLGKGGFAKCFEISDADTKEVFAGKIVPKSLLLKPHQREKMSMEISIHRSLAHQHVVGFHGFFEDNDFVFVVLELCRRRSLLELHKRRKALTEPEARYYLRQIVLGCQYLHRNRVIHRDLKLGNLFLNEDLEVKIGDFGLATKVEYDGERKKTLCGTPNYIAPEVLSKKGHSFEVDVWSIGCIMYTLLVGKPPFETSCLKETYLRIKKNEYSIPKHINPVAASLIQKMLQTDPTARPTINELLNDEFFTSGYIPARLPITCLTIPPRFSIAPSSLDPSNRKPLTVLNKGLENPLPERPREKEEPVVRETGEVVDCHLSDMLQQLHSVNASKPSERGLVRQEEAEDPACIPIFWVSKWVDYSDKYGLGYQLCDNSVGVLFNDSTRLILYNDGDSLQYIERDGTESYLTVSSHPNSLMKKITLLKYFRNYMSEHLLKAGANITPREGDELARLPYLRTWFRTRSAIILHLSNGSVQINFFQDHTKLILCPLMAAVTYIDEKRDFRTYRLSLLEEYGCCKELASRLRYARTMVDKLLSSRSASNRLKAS
row,Ki [nM],Structure (SMILES)
1,3 to 40,"CCN(CC)S(=O)(=O)c1ccc(C(C)Nc2ncc(C#N)c(-c3c[nH]c4ncc(C(F)(F)F)cc34)n2)cc1 (stereo not shown) [Compound I-181, 4-(1-(5-cyano-4-(5-(trifluoromethyl)-1H-pyrrolo[2,3-b]pyridin-3-yl)pyrimidin-2-ylamino)ethyl)-N,N-diethylbenzenesulfonamide]"
2,< 3,"COCCC(=O)N1CCC(C(C)Nc2ncc(C#N)c(-c3c[nH]c4ncc(C(F)(F)F)cc34)n2)CC1 (stereo not shown) [Compound I-184, 2-(1-(1-(3-methoxypropanoyl)piperidin-4-yl)ethylamino)-4-(5-(trifluoromethyl)-1H-pyrrolo[2,3-b]pyridin-3-yl)pyrimidine-5-carbonitrile]"
3,< 3,"C[C@@H](Nc1ncc(C#N)c(-c2c[nH]c3ncc(C(F)(F)F)cc23)n1)c1ccc(CO)cc1 [Compound I-185, 2-((R)-1-(4-(hydroxymethyl)phenyl)ethylamino)-4-(5-(trifluoromethyl)-1H-pyrrolo[2,3-b]pyridin-3-yl)pyrimidine-5-carbonitrile]"
4,< 3,"C[C@@H](Nc1ncc(C#N)c(-c2c[nH]c3ncc(C(F)(F)F)cc23)n1)c1ccc(C(=O)O)cc1 [Compound I-186, 4-((1R)-1-(5-cyano-4-(5-(trifluoromethyl)-1H-pyrrolo[2,3-b]pyridin-3-yl)pyrimidin-2-ylamino)ethyl)benzoic acid]"
5,< 3,"CC(Nc1ncc(C#N)c(-c2c[nH]c3ncc(C(F)(F)F)cc23)n1)C1CCN(C(=O)CN)CC1 (stereo not shown) [Compound I-188, 2-(1-(1-(2-aminoacetyl)piperidin-4-yl)ethylamino)-4-(5-(trifluoromethyl)-1H-pyrrolo[2,3-b]pyridin-3-yl)pyrimidine-5-carbonitrile]"
6,< 3,"CNCC(=O)N1CCC(C(C)Nc2ncc(C#N)c(-c3c[nH]c4ncc(C(F)(F)F)cc34)n2)CC1 (stereo not shown) [Compound I-189, 2-(1-(1-(2-(methylamino)acetyl)piperidin-4-yl)ethylamino)-4-(5-(trifluoromethyl)-1H-pyrrolo[2,3-b]pyridin-3-yl)pyrimidine-5-carbonitrile]"
7,< 3,"CC(Nc1ncc(C#N)c(-c2c[nH]c3ncc(C(F)(F)F)cc23)n1)C1CCN(C(=O)CO)CC1 (stereo not shown) [Compound I-192, 2-(1-(1-(2-hydroxyacetyl)piperidin-4-yl)ethylamino)-4-(5-(trifluoromethyl)-1H-pyrrolo[2,3-b]pyridin-3-yl)pyrimidine-5-carbonitrile]"
8,< 3,"CC(Nc1ncc(C#N)c(-c2c[nH]c3ncc(C(F)(F)F)cc23)n1)C1CCN(C(=O)CN(C)C)CC1 (stereo not shown) [Compound I-193, 2-(1-(1-(2-(dimethylamino)acetyl)piperidin-4-yl)ethylamino)-4-(5-(trifluoromethyl)-1H-pyrrolo[2,3-b]pyridin-3-yl)pyrimidine-5-carbonitrile]"
9,3 to 40,"CC(Nc1ncc(C#N)c(-c2c[nH]c3ncc(C(F)(F)F)cc23)n1)c1ccc(N2CC(O)(C3CC3)C2)nc1 (stereo not shown) [Compound I-194, 2-(1-(6-(3-cyclopropyl-3-hydroxyazetidin-1-yl)pyridin-3-yl)ethylamino)-4-(5-(trifluoromethyl)-1H-pyrrolo[2,3-b]pyridin-3-yl)pyrimidine-5-carbonitrile]"
10,3 to 40,"CC(Nc1ncc(C#N)c(-c2c[nH]c3ncc(C(F)(F)F)cc23)n1)c1ccc(N2CCC(O)(C(C)C)CC2)nc1 (stereo not shown) [Compound I-198, 2-(1-(6-(4-hydroxy-4-isopropylpiperidin-1-yl)pyridin-3-yl)ethylamino)-4-(5-(trifluoromethyl)-1H-pyrrolo[2,3-b]pyridin-3-yl)pyrimidine-5-carbonitrile]"
11,3 to 40,"C[C@@H](Nc1ncc(C#N)c(-c2c[nH]c3ncc(C(F)(F)F)cc23)n1)C1CCNCC1 [Compound I-204, 2-((R)-1-(piperidin-4-yl)ethylamino)-4-(5-(trifluoromethyl)-1H-pyrrolo[2,3-b]pyridin-3-yl)pyrimidine-5-carbonitrile]"

# Continued, compound first:
row,Structure (SMILES),Ki [nM]
1,"CCC(Nc1ncc(C#N)c(-c2c[nH]c3ncc(C(F)(F)F)cc23)n1)C1CCN(S(=O)(=O)C(C)C)CC1 (stereo not shown) [Compound I-182, 2-(1-(1-(isopropylsulfonyl)piperidin-4-yl)propylamino)-4-(5-(trifluoromethyl)-1H-pyrrolo[2,3-b]pyridin-3-yl)pyrimidine-5-carbonitrile]",3 to 40
2,"COCC(=O)N1CCC(C(C)Nc2ncc(C#N)c(-c3c[nH]c4ncc(C(F)(F)F)cc34)n2)CC1 (stereo not shown) [Compound I-183, 2-(1-(1-(2-methoxyacetyl)piperidin-4-yl)ethylamino)-4-(5-(trifluoromethyl)-1H-pyrrolo[2,3-b]pyridin-3-yl)pyrimidine-5-carbonitrile]",< 3
3,"CCC(=O)N1CCC(C(C)Nc2ncc(C#N)c(-c3c[nH]c4ncc(C(F)(F)F)cc34)n2)CC1 (stereo not shown) [Compound I-187, 2-(1-(1-propionylpiperidin-4-yl)ethylamino)-4-(5-(trifluoromethyl)-1H-pyrrolo[2,3-b]pyridin-3-yl)pyrimidine-5-carbonitrile]",< 3
4,"C[C@@H](Nc1ncc(C#N)c(-c2c[nH]c3ncc(C(F)(F)F)cc23)n1)c1ccc(S(=O)(=O)N(C)C)cc1 [Compound I-190, 4-((1R)-1-(5-cyano-4-(5-(trifluoromethyl)-1H-pyrrolo[2,3-b]pyridin-3-yl)pyrimidin-2-ylamino)ethyl)-N,N-dimethylbenzenesulfonamide]",< 3
5,"CC(Nc1ncc(C#N)c(-c2c[nH]c3ncc(C(F)(F)F)cc23)n1)c1ccc(N2CC(F)(C3CC3)C2)nc1 (stereo not shown) [Compound I-191, 2-(1-(6-(3-cyclopropyl-3-fluoroazetidin-1-yl)pyridin-3-yl)ethylamino)-4-(5-(trifluoromethyl)-1H-pyrrolo[2,3-b]pyridin-3-yl)pyrimidine-5-carbonitrile]",3 to 40
6,"CC(Nc1ncc(C#N)c(-c2c[nH]c3ncc(C(F)(F)F)cc23)n1)c1ccc(N2CCC(O)(C3CC3)CC2)nc1 (stereo not shown) [Compound I-195, 2-(1-(6-(4-cyclopropyl-4-hydroxypiperidin-1-yl)pyridin-3-yl)ethylamino)-4-(5-(trifluoromethyl)-1H-pyrrolo[2,3-b]pyridin-3-yl)pyrimidine-5-carbonitrile]",3 to 40
7,"C[C@@H](Nc1ncc(C#N)c(-c2c[nH]c3ncc(C(F)(F)F)cc23)n1)c1ccc(S(N)(=O)=O)cc1 [Compound I-196, 4-((1R)-1-(5-cyano-4-(5-(trifluoromethyl)-1H-pyrrolo[2,3-b]pyridin-3-yl)pyrimidin-2-ylamino)ethyl)benzenesulfonamide]",< 3
8,"CCC1(O)CCN(c2ccc(C(C)Nc3ncc(C#N)c(-c4c[nH]c5ncc(C(F)(F)F)cc45)n3)cn2)CC1 (stereo not shown) [Compound I-197, 2-(1-(6-(4-ethyl-4-hydroxypiperidin-1-yl)pyridin-3-yl)ethylamino)-4-(5-(trifluoromethyl)-1H-pyrrolo[2,3-b]pyridin-3-yl)pyrimidine-5-carbonitrile]",3 to 40
9,"CC(Nc1ncc(C#N)c(-c2c[nH]c3ncc(C(F)(F)F)cc23)n1)c1ccc(N2CCC(F)CC2)nc1 (stereo not shown) [Compound I-199, 2-(1-(6-(4-fluoropiperidin-1-yl)pyridin-3-yl)ethylamino)-4-(5-(trifluoromethyl)-1H-pyrrolo[2,3-b]pyridin-3-yl)pyrimidine-5-carbonitrile]",3 to 40
10,"CNS(=O)(=O)c1ccc([C@@H](C)Nc2ncc(C#N)c(-c3c[nH]c4ncc(C(F)(F)F)cc34)n2)cc1 [Compound I-200, 4-((1R)-1-(5-cyano-4-(5-(trifluoromethyl)-1H-pyrrolo[2,3-b]pyridin-3-yl)pyrimidin-2-ylamino)ethyl)-N-methylbenzenesulfonamide]",< 3
11,"CC(Nc1ncc(C#N)c(-c2c[nH]c3ncc(C(F)(F)F)cc23)n1)c1ccc(N2CC(O)C2)nc1 (stereo not shown) [Compound I-201, 2-(1-(6-(3-hydroxyazetidin-1-yl)pyridin-3-yl)ethylamino)-4-(5-(trifluoromethyl)-1H-pyrrolo[2,3-b]pyridin-3-yl)pyrimidine-5-carbonitrile]",< 3
12,"C[C@@H](Nc1ncc(C#N)c(-c2c[nH]c3ncc(C(F)(F)F)cc23)n1)C1CCN(C(=O)CO)CC1 [Compound I-205, 2-((R)-1-(1-(2-hydroxyacetyl)piperidin-4-yl)ethylamino)-4-(5-(trifluoromethyl)-1H-pyrrolo[2,3-b]pyridin-3-yl)pyrimidine-5-carbonitrile]",< 3
13,"C[C@@H](Nc1ncc(C#N)c(-c2c[nH]c3ncc(C(F)(F)F)cc23)n1)C1CCN(C(=O)C(C)(C)O)CC1 [Compound I-206, 2-((R)-1-(1-(2-hydroxy-2-methylpropanoyl)piperidin-4-yl)ethylamino)-4-(5-(trifluoromethyl)-1H-pyrrolo[2,3-b]pyridin-3-yl)pyrimidine-5-carbonitrile]",< 3
14,"C[C@@H](O)C(=O)N1CCC([C@@H](C)Nc2ncc(C#N)c(-c3c[nH]c4ncc(C(F)(F)F)cc34)n2)CC1 [Compound I-207, 2-((R)-1-(1-((R)-2-hydroxypropanoyl)piperidin-4-yl)ethylamino)-4-(5-(trifluoromethyl)-1H-pyrrolo[2,3-b]pyridin-3-yl)pyrimidine-5-carbonitrile]",< 3
15,"CC(=O)N[C@H]1CC[C@H]([C@@H](C)Nc2ncc(C#N)c(-c3c[nH]c4ncc(C(F)(F)F)cc34)n2)CC1 [Compound I-208, N-((1R,4r)-4-((1R)-1-(5-cyano-4-(5-(trifluoromethyl)-1H-pyrrolo[2,3-b]pyridin-3-yl)pyrimidin-2-ylamino)ethyl)cyclohexyl)acetamide]",< 3
16,"CC(=O)N[C@H]1CC[C@@H]([C@@H](C)Nc2ncc(C#N)c(-c3c[nH]c4ncc(C(F)(F)F)cc34)n2)CC1 [Compound I-209, N-((1S,4s)-4-((1R)-1-(5-cyano-4-(5-(trifluoromethyl)-1H-pyrrolo[2,3-b]pyridin-3-yl)pyrimidin-2-ylamino)ethyl)cyclohexyl)acetamide]",3 to 40
17,"C[C@@H](Nc1ncc(C#N)c(-c2c[nH]c3ncc(C(F)(F)F)cc23)n1)C1CCN(C(=O)CN)CC1 [Compound I-210, 2-((R)-1-(1-(2-aminoacetyl)piperidin-4-yl)ethylamino)-4-(5-(trifluoromethyl)-1H-pyrrolo[2,3-b]pyridin-3-yl)pyrimidine-5-carbonitrile]",< 3
